Results as given in PMC8842743 (Journal of Alzheimer's Disease Reports, 2022).

Tested on: healthy subjects
Test: Clinical liver safety laboratory data over time
Type: in vivo, human
Details: mean (SD)

SMILES: COc1cnc(C(=O)Nc2ccc(F)c([C@]34CN(c5ncc(F)cn5)C[C@H]3CSC(N)=N4)c2)cn1 [LY3202626]
- Albumin (6 mg daily, Day 8): 46.3 (1.6) g/L
- GGT (6 mg daily, Day 8): 21.7 (10.8) U/L
- Total Bilirubin (6 mg daily, Day 8): 8.1 (2.8) umol/L
- ALP (6 mg daily, Day 10): 62.9 (15.4) U/L
- ALT (6 mg daily, Day 10): 17.9 (2.3) U/L
- AST (6 mg daily, Day 10): 19.6 (6.0) U/L
- Albumin (6 mg daily, Day 10): 46.0 (1.7) g/L
- GGT (6 mg daily, Day 10): 20.6 (8.7) U/L
- Total Bilirubin (6 mg daily, Day 10): 8.2 (2.7) umol/L
- ALP (6 mg daily, Day 12): 63.6 (17.2) U/L
- ALT (6 mg daily, Day 12): 16.9 (2.5) U/L
- AST (6 mg daily, Day 12): 17.2 (3.8) U/L
- Albumin (6 mg daily, Day 12): 46.7 (1.6) g/L
- GGT (6 mg daily, Day 12): 20.3 (8.2) U/L
- Total Bilirubin (6 mg daily, Day 12): 7.4 (2.4) umol/L
- ALP (6 mg daily, Day 14): 62.2 (16.0) U/L
- ALT (6 mg daily, Day 14): 15.2 (2.5) U/L
- AST (6 mg daily, Day 14): 15.3 (4.3) U/L
- Albumin (6 mg daily, Day 14): 44.4 (1.8) g/L
- GGT (6 mg daily, Day 14): 19.3 (10.3) U/L
- Total Bilirubin (6 mg daily, Day 14): 8.1 (5.0) umol/L
- ALP (6 mg daily, Day 15): 58.9 (14.3) U/L
- ALT (6 mg daily, Day 15): 16.1 (2.9) U/L
- AST (6 mg daily, Day 15): 15.9 (3.9) U/L
- Albumin (6 mg daily, Day 15): 43.8 (2.1) g/L
- GGT (6 mg daily, Day 15): 18.6 (8.6) U/L
- Total Bilirubin (6 mg daily, Day 15): 7.3 (3.0) umol/L
- ALP (6 mg daily, Day 17): 65.0 (18.7) U/L
- ALT (6 mg daily, Day 17): 19.8 (4.3) U/L
- AST (6 mg daily, Day 17): 18.9 (3.5) U/L
- Albumin (6 mg daily, Day 17): 46.0 (1.7) g/L
- GGT (6 mg daily, Day 17): 20.9 (9.7) U/L
- Total Bilirubin (6 mg daily, Day 17): 6.3 (4.7) umol/L
- ALP (26 mg daily, Day 1 predose): 56.9 (12.0) U/L
- ALT (26 mg daily, Day 1 predose): 16.9 (6.3) U/L
- AST (26 mg daily, Day 1 predose): 15.2 (2.5) U/L
- Albumin (26 mg daily, Day 1 predose): 46.3 (1.9) g/L
- GGT (26 mg daily, Day 1 predose): 18.3 (8.2) U/L
- Total Bilirubin (26 mg daily, Day 1 predose): 9.0 (2.6) umol/L
- ALP (26 mg daily, Day 2): 57.9 (11.3) U/L
- ALT (26 mg daily, Day 2): 15.6 (6.2) U/L
- AST (26 mg daily, Day 2): 14.6 (2.7) U/L
- Albumin (26 mg daily, Day 2): 46.2 (1.9) g/L
- GGT (26 mg daily, Day 2): 18.9 (8.5) U/L
- Total Bilirubin (26 mg daily, Day 2): 8.6 (2.6) umol/L
- ALP (26 mg daily, Day 3): 57.2 (11.1) U/L
- ALT (26 mg daily, Day 3): 16.2 (6.4) U/L
- AST (26 mg daily, Day 3): 14.9 (3.6) U/L
- Albumin (26 mg daily, Day 3): 45.0 (2.7) g/L
- GGT (26 mg daily, Day 3): 18.6 (8.8) U/L
- Total Bilirubin (26 mg daily, Day 3): 7.1 (2.3) umol/L
- ALP (26 mg daily, Day 4): 58.6 (10.8) U/L
- ALT (26 mg daily, Day 4): 16.9 (5.6) U/L
- AST (26 mg daily, Day 4): 16.8 (3.8) U/L
- Albumin (26 mg daily, Day 4): 46.0 (1.9) g/L
- GGT (26 mg daily, Day 4): 19.0 (9.6) U/L
- Total Bilirubin (26 mg daily, Day 4): 6.7 (1.4) umol/L
- ALP (26 mg daily, Day 6): 57.6 (12.0) U/L
- ALT (26 mg daily, Day 6): 16.2 (5.2) U/L
- AST (26 mg daily, Day 6): 17.8 (3.2) U/L
- Albumin (26 mg daily, Day 6): 44.9 (2.0) g/L
- GGT (26 mg daily, Day 6): 18.2 (8.5) U/L
- Total Bilirubin (26 mg daily, Day 6): 8.6 (3.0) umol/L
- ALP (26 mg daily, Day 8): 59.3 (10.8) U/L
- ALT (26 mg daily, Day 8): 16.8 (4.5) U/L
- AST (26 mg daily, Day 8): 16.4 (3.0) U/L
- Albumin (26 mg daily, Day 8): 46.3 (2.9) g/L
- GGT (26 mg daily, Day 8): 18.6 (7.2) U/L
- Total Bilirubin (26 mg daily, Day 8): 8.6 (4.6) umol/L
- ALP (26 mg daily, Day 10): 60.7 (11.4) U/L
- ALT (26 mg daily, Day 10): 15.8 (5.5) U/L
- AST (26 mg daily, Day 10): 16.1 (2.7) U/L
- Albumin (26 mg daily, Day 10): 45.8 (2.0) g/L
- GGT (26 mg daily, Day 10): 17.9 (7.4) U/L
- Total Bilirubin (26 mg daily, Day 10): 8.7 (4.2) umol/L
- ALP (26 mg daily, Day 12): 60.1 (9.6) U/L
- ALT (26 mg daily, Day 12): 16.9 (5.6) U/L
- AST (26 mg daily, Day 12): 18.3 (3.5) U/L
- Albumin (26 mg daily, Day 12): 44.9 (2.3) g/L
- GGT (26 mg daily, Day 12): 17.7 (7.4) U/L
- Total Bilirubin (26 mg daily, Day 12): 8.3 (4.5) umol/L
- ALP (26 mg daily, Day 14): 59.3 (10.2) U/L
- ALT (26 mg daily, Day 14): 17.1 (7.4) U/L
- AST (26 mg daily, Day 14): 16.3 (4.0) U/L
- Albumin (26 mg daily, Day 14): 43.7 (2.2) g/L
- GGT (26 mg daily, Day 14): 18.1 (8.8) U/L
- Total Bilirubin (26 mg daily, Day 14): 5.8 (2.4) umol/L
- ALP (26 mg daily, Day 15): 58.6 (9.6) U/L
- ALT (26 mg daily, Day 15): 16.8 (7.8) U/L
- AST (26 mg daily, Day 15): 16.2 (4.6) U/L
- Albumin (26 mg daily, Day 15): 44.0 (2.6) g/L
- GGT (26 mg daily, Day 15): 17.6 (8.8) U/L
- Total Bilirubin (26 mg daily, Day 15): 7.2 (1.9) umol/L
- ALP (26 mg daily, Day 17): 65.7 (11.5) U/L
- ALT (26 mg daily, Day 17): 20.0 (9.8) U/L
- AST (26 mg daily, Day 17): 18.6 (6.2) U/L
- Albumin (26 mg daily, Day 17): 45.9 (1.3) g/L
- GGT (26 mg daily, Day 17): 20.7 (11.1) U/L
- Total Bilirubin (26 mg daily, Day 17): 7.3 (4.6) umol/L
